Experimental data taken from paper PMC6235261, “Deuterium isotope effects in drug pharmacokinetics II: Substrate-dependence of the reaction mechanism influences outcome for cytochrome P450 cleared drugs” (PLoS ONE, 2018).

Tests used:
CYP1A2 = target: T1, CYP1A2 (Homo sapiens, UniProt P05177); experiment: Substrate depletion with recombinant CYP1A2; type: in vitro ADME; conditions: for kobs: recombinant CYP1A2, substrate depletion at 1.0 μM, 10 pmol/mL rCYP, 37 °C
T1 construct: host or cells: insect cells (membranes)
T1 sequence (P05177 2-516 limits assumed): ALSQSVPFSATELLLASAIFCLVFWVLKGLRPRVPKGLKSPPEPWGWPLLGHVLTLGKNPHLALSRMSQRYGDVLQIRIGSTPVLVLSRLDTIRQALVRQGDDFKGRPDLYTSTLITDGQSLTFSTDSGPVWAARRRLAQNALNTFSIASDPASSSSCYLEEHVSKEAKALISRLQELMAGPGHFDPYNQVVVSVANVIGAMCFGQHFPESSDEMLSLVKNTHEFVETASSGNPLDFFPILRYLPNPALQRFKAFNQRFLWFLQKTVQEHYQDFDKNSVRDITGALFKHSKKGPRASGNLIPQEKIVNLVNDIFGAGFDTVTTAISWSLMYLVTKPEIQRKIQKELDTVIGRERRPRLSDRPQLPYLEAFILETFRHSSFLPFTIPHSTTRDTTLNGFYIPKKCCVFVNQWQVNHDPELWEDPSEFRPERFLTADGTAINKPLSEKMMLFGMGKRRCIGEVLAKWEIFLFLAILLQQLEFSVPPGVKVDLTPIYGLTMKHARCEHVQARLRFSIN
Method: (§1) Relative CYP activities were determined from the ratio of the depletion rate constant for each isoform relative to that for CYP3A4. […] Eight 100 μL aliquots each were removed over a period of 70 to 90 minutes and added to 100 μL of a 0.1 μM solution of an internal standard in methanol to quench the enzymatic reaction. The samples were filtered through a high protein-binding capacity filter membrane in a 96-well format. The filtrates were evaporated in a vacuum centrifuge to near dryness, diluted with 125 μL of water, and a 99 μL aliquot was analyzed by reversed phase chromatography/mass spectrometry using selected reaction monitoring. Rate constants were determined from the semi-logarithmic plots of the time versus ratio of the area under the peak for specific transitions of the various substrates and the internal standard. The intrinsic clearance isotope effect was determined from the ratio of the rate constants for the protio- and respective deuterio- forms.

CYP2C8 = target: T2, CYP2C8 (Homo sapiens, UniProt P10632); experiment: Substrate depletion with recombinant CYP2C8; type: in vitro ADME; conditions: for As % of CYP3A4: recombinant CYP2C8, depletion rate constant relative to CYP3A4
T2 construct: host or cells: insect cells (membranes)
T2 sequence (P10632 1-490): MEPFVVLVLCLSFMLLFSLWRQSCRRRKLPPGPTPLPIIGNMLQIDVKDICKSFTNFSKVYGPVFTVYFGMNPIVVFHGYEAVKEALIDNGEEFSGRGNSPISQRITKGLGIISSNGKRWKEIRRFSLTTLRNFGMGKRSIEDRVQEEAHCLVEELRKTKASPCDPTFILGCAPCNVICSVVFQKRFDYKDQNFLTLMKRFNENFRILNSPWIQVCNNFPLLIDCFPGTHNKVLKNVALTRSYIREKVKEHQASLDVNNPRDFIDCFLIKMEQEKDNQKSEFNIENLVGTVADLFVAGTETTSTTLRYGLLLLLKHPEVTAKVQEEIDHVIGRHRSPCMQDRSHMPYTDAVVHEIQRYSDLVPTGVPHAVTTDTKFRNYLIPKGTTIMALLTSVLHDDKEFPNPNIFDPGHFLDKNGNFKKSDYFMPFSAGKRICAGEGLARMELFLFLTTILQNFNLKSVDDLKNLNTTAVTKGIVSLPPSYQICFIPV
Method: as §1

[1] = Estimation of Km by the substrate depletion method; type: in vitro ADME; conditions: human, pH 7.4
Method: as §1

CYP2C9 = target: T3, CYP2C9 (Homo sapiens, UniProt P11712); experiment: Substrate depletion with recombinant CYP2C9; type: in vitro ADME
T3 construct: host or cells: insect cells (membranes)
T3 sequence (P11712 whole entry): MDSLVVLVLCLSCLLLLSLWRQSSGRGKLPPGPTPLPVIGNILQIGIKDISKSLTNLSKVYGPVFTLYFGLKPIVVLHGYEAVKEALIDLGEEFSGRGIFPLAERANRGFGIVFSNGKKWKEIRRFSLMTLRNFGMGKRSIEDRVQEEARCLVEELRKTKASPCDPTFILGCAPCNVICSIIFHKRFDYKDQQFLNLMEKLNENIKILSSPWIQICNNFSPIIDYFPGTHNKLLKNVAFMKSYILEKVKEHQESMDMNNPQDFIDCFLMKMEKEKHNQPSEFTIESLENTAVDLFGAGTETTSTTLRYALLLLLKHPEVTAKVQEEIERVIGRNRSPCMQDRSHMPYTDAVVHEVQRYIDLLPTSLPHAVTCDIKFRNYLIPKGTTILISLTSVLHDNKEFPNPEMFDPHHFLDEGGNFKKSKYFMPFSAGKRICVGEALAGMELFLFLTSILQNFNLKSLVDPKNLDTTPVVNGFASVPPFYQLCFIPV
Method: as §1

CYP2C19 = target: T4, CYP2C19 (Homo sapiens, UniProt P33261); experiment: Substrate depletion with recombinant CYP2C19; type: in vitro ADME; conditions: for kobs: recombinant CYP2C19, substrate depletion at 1.0 μM, 10 pmol/mL rCYP, 37 °C
T4 construct: host or cells: insect cells (membranes)
T4 sequence (P33261 whole entry): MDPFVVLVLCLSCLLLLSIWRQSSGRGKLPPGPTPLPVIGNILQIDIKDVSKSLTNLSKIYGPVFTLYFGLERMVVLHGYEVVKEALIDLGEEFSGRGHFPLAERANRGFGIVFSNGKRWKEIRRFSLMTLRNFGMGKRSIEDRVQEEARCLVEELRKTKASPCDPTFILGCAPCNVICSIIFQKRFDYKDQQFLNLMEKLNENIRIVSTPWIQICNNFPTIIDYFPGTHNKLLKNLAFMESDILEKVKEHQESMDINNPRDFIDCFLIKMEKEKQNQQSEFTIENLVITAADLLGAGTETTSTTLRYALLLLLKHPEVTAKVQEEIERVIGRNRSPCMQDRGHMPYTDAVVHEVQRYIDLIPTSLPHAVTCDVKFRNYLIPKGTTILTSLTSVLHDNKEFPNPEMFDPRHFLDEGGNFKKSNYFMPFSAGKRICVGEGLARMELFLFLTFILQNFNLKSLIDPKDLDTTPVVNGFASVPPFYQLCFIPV
Method: as §1

CYP2D6 = target: T5, CYP2D6 (Homo sapiens, UniProt P10635); experiment: Substrate depletion with recombinant CYP2D6; type: in vitro ADME
T5 construct: host or cells: insect cells (membranes)
T5 sequence (P10635 whole entry): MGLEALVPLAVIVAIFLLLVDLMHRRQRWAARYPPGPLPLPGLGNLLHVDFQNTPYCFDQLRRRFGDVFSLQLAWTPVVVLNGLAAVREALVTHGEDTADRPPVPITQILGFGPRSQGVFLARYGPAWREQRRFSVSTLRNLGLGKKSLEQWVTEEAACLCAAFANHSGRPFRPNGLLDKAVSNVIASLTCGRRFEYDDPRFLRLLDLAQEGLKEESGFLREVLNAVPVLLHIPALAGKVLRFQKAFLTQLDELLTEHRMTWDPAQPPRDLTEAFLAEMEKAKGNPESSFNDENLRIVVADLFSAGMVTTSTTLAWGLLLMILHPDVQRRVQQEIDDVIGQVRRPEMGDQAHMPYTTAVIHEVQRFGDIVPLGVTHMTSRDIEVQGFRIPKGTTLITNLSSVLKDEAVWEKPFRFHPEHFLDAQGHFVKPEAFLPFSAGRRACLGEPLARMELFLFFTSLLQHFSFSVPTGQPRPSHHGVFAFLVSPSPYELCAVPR
Method: as §1

CYP3A4 = target: T6, CYP3A4 (Homo sapiens, UniProt P08684); type: in vitro ADME; conditions: 1 μM, pH 7.4
T6 construct: host or cells: insect cells (membranes)
T6 sequence (P08684 2-503 limits assumed): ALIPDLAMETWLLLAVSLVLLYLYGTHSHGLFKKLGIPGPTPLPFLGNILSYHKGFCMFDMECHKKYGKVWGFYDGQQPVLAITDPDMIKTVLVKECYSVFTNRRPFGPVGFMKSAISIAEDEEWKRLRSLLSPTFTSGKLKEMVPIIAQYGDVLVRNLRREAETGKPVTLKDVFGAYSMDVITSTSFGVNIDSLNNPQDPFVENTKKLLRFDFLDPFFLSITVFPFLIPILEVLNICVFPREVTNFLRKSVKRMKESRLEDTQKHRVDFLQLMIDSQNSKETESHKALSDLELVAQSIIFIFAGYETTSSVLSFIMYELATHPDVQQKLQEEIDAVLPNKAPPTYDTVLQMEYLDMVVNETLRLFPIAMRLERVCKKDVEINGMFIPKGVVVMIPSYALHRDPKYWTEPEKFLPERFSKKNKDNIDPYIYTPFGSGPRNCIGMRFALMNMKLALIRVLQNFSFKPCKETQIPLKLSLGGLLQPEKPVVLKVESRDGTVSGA
Method: as §1

Compound | kobs (CYP1A2) [min⁻¹] | As % of CYP3A4 (CYP2C8) [%] | kobs (CYP2C8; recombinant CYP2C8, substrate depletion at 1.0 μM, 10 pmol/mL rCYP, 37 °C) [min⁻¹] | Km [1] [µM] | kobs (CYP2C9; recombinant CYP2C9, substrate depletion at 1.0 μM, 10 pmol/mL rCYP, 37 °C) [min⁻¹] | kobs (CYP2C19) [min⁻¹] | kobs (CYP2D6; recombinant CYP2D6, substrate depletion at 1.0 μM, 10 pmol/mL rCYP, 37 °C) [min⁻¹] | melting point [°C] | kobs (CYP3A4) [min⁻¹] | As % of CYP3A4 (CYP3A4; recombinant enzyme) [%] | As % of CYP3A4 (CYP1A2; recombinant CYP1A2, depletion rate constant relative to CYP3A4) [%] | As % of CYP3A4 (CYP2C9; recombinant CYP2C9, depletion rate constant relative to CYP3A4) [%] | As % of CYP3A4 (CYP2C19; recombinant CYP2C19, depletion rate constant relative to CYP3A4) [%] | As % of CYP3A4 (CYP2D6; recombinant CYP2D6, depletion rate constant relative to CYP3A4) [%]
CCNc1nc2c(c(C(N)=O)n1)CN(C(=O)CCc1ccc(OC(F)(F)F)cc1)CC2 [Compound 1a] | 0.009 | 0 | 0.001 | > 5 | 0.050 | 0.071 | 0.015 | 132 to 133 |  |  |  |  |  | 
COc1cccc(-n2nnc(C3CC3)c2C(=O)N(C)c2ccc(C#N)cc2)c1 [Compound 2a] | <0.001 | 0 |  | > 5 |  | 0.014 |  |  | 0.059 | 100 | 0 | 0 | 24 | 0
